Source: ChEMBL document CHEMBL5214900, “Design, Synthesis, and Biological Evaluation of Membrane-Active Bakuchiol Derivatives as Effective Broad-Spectrum Antibacterial Agents” (J Med Chem, 2021)
Values after ≈ are worked out from the molar mass of the structure shown. Active and inactive are the calls of the source. The rule behind the calls is not given here.

Legend:
Staphylococcus aureus [1] = test: Antibacterial activity against Staphylococcus aureus ATCC 29213 assessed as inhibition of bacterial growth incubated for 24 hrs by CLSI based broth dilution method; assay type: functional
Escherichia coli [2] = test: Antibacterial activity against Escherichia coli ATCC 25922 assessed as inhibition of bacterial growth incubated for 24 hrs by CLSI based broth dilution method; assay type: functional
[3] = Hemolytic activity in rabbit RBC measured after 1 hrs by multimode reader assay; assay type: toxicity, cell-based, Oryctolagus cuniculus, Erythrocyte; conditions: rabbit red blood cells (erythrocytes)
Pseudomonas aeruginosa = test: Antibacterial activity against Pseudomonas aeruginosa ATCC 9027 assessed as inhibition of bacterial growth incubated for 24 hrs by CLSI based broth dilution method; assay type: functional
Acinetobacter baumannii [4] = test: Antibacterial activity against Acinetobacter baumannii ATCC 17978 assessed as inhibition of bacterial growth incubated for 24 hrs by CLSI based broth dilution method; assay type: functional
Klebsiella pneumoniae = test: Antibacterial activity against Klebsiella pneumoniae ATCC 14581 assessed as inhibition of bacterial growth incubated for 24 hrs by CLSI based broth dilution method; assay type: functional
Staphylococcus aureus [5] = test: Antibacterial activity against Staphylococcus aureus ATCC 29213 assessed as fold increase in MIC incubated for 24 hrs in presence of 140 mM Na+ by CLSI based broth dilution method; assay type: functional
Staphylococcus aureus [6] = test: Antibacterial activity against Staphylococcus aureus ATCC 29213 assessed as fold increase in MIC incubated for 24 hrs in presence of 2.5 mM Ca2+ by CLSI based broth dilution method; assay type: functional
Staphylococcus aureus [7] = test: Antibacterial activity against Staphylococcus aureus ATCC 29213 assessed as fold increase in MIC incubated for 24 hrs in presence of 1 mM Mg2+ by CLSI based broth dilution method; assay type: functional
Staphylococcus aureus [8] = test: Antibacterial activity against Staphylococcus aureus NCTC10442 assessed as fold increase in MIC incubated for 24 hrs in presence of 2.5 mM Ca2+ by CLSI based broth dilution method; assay type: functional
Acinetobacter baumannii [9] = test: Antibacterial activity against Acinetobacter baumannii ATCC 17978 assessed as fold increase in MIC incubated for 24 hrs in presence of 2.5 mM Ca2+ by CLSI based broth dilution method; assay type: functional
Acinetobacter baumannii [10] = test: Antibacterial activity against Acinetobacter baumannii ATCC 17978 assessed as fold increase in MIC incubated for 24 hrs in presence of 1 mM Mg2+ by CLSI based broth dilution method; assay type: functional
Escherichia coli [11] = test: Antibacterial activity against Escherichia coli ATCC 25922 assessed as fold increase in MIC incubated for 24 hrs in presence of 2.5 mM Ca2+ by CLSI based broth dilution method; assay type: functional
Cell membrane [12] = test: Disruption of membrane integrity in Pseudomonas aeruginosa ATCC 9027 assessed as increase in red fluorescence intensity at 8 times MIC incubated for 2 hrs by SYTO 9/PI staining based fluorescence analysis; assay type: subcellular
Cell membrane [13] = test: Induction of outer membrane permeabilization in Escherichia coli ATCC 25922 assessed as increase in fluorescence intensity at 1 to 8 times MIC measured for 60 mins by NPN uptake assay; assay type: subcellular; conditions: DDE = dose-dependent effect
Lipoteichoic acid [14] = test: Displacement of BODIPY-TR-cadaverine from Bacillus subtilis Lipoteichoic acid at 1 times MIC measured for 30 mins by fluorescence based microplate reader assay relative to control
Lipoteichoic acid [15] = test: Displacement of BODIPY-TR-cadaverine from Bacillus subtilis Lipoteichoic acid at 4 times MIC measured for 30 mins by fluorescence based microplate reader assay relative to control
Lipopolysaccharide (LPS) = test: Displacement of BODIPY-TR-cadaverine from Escherichia coli Lipopolysaccharide at 1 times MIC measured for 30 mins by fluorescence based microplate reader assay relative to control
[16] = Cytotoxicity against mouse NCTC clone 929 cells assessed as cell viability at 12.5 ug/ml incubated for 24 hrs by CCK-8 assay relative to control; assay type: toxicity, cell-based; conditions: at 12.5 µg/mL, read-out: Activity
[17] = Cytotoxicity against mouse NCTC clone 929 cells assessed as cell viability at 25 ug/ml incubated for 24 hrs by CCK-8 assay relative to control; assay type: toxicity, cell-based; conditions: at 25 µg/mL, read-out: Activity
[18] = Cytotoxicity against HEK293 cells assessed as cell viability at 3.125 ug/ml incubated for 24 hrs by CCK-8 assay relative to control; assay type: toxicity, cell-based; conditions: human, at 3.125 µg/mL, read-out: Activity
[19] = Cytotoxicity against HEK293 cells assessed as cell viability at 12.5 ug/ml incubated for 24 hrs by CCK-8 assay relative to control; assay type: toxicity, cell-based; conditions: human, at 12.5 µg/mL, read-out: Activity
[20] = Cytotoxicity against HEK293 cells assessed as cell viability at 50 ug/ml incubated for 24 hrs by CCK-8 assay relative to control; assay type: toxicity, cell-based; conditions: human, at 50 µg/mL, read-out: Activity
[21] = Cytotoxicity against mouse NCTC clone 929 cells assessed as cell viability incubated for 24 hrs by CCK-8 assay; assay type: toxicity, cell-based
[22] = Cytotoxicity against HEK293 cells assessed as cell viability incubated for 24 hrs by CCK-8 assay; assay type: toxicity, cell-based; conditions: human
Staphylococcus aureus [23] = test: Antibiofilm activity against Staphylococcus aureus ATCC 29213 assessed reduction in biofilm formation at 0.78 ug/ml measured after 24 hrs by crystal violet staining based assay relative to control; assay type: functional; design: scale not given: the % may be the effect or the level left; conditions: dose 0.78 µg/ml
Staphylococcus aureus [24] = test: Antibiofilm activity against Staphylococcus aureus ATCC 29213 assessed reduction in biofilm formation at […] ug/ml measured after 24 hrs by crystal violet staining based assay relative to control; assay type: functional; design: scale not given: the % may be the effect or the level left; conditions: dose […] microg/ml, 1.56 ug/mL
Escherichia coli [25] = test: Antibiofilm activity against Escherichia coli ATCC 25922 assessed reduction in biofilm formation at 0.78 ug/ml measured after 24 hrs by crystal violet staining based assay relative to control; assay type: functional; design: scale not given: the % may be the effect or the level left; conditions: dose 0.78 µg/ml
Staphylococcus aureus [26] = test: Antibacterial activity against Staphylococcus aureus ATCC 29213 assessed as eradication of preformed bacterial biofilm by measuring residual biofilm viability at 6.25 ug/ml incubated for 24 hrs by crystal violet staining based assay relative to control; assay type: functional; conditions: dose 6.25 µg/ml
Escherichia coli [27] = test: Antibacterial activity against Escherichia coli ATCC 25922 assessed as eradication of preformed bacterial biofilm by measuring residual biofilm viability at 0.78 ug/ml incubated for 24 hrs by crystal violet staining based assay relative to control; assay type: functional; conditions: dose 0.78 µg/ml
Escherichia coli [28] = test: Antibacterial activity against Escherichia coli ATCC 25922 assessed as eradication of preformed bacterial biofilm by measuring residual biofilm viability at 3.125 ug/ml incubated for 24 hrs by crystal violet staining based assay relative to control; assay type: functional; conditions: dose 3.125 µg/ml
Escherichia coli [29] = test: Antibacterial activity against Escherichia coli ATCC 25922 assessed as eradication of preformed bacterial biofilm by measuring residual biofilm viability at 12.5 ug/ml incubated for 24 hrs by crystal violet staining based assay relative to control; assay type: functional; conditions: dose 12.5 µg/ml
[30] = Toxicity in C57BL/6 mouse assessed as signs of toxicity in cornea at 0.8 mg/ml, TOP administered 4 times a day for 3 consecutive days; conditions: in vivo, topical_or_ocular, 72 h, time 3 day
[31] = Toxicity in C57BL/6 mouse assessed as corneal damage at 0.8 mg/ml, TOP administered 4 times a day for 3 consecutive days; conditions: in vivo, topical_or_ocular, 72 h, time 3 day

C=C[C@@](C)(/C=C/c1ccc(OCCCCN(CCCN(C)C)CCCN(C)C)cc1)CCC=C(C)C
MIC (Staphylococcus aureus [1]): 3.12 µg/mL (≈ 6.28 µM) | MIC (Escherichia coli [2]): 3.12 µg/mL (≈ 6.28 µM) | HC50 at 1 h [3]: 113 µg/mL | MIC (Pseudomonas aeruginosa): 3.12 µg/mL (≈ 6.28 µM) | MIC (Acinetobacter baumannii [4]): 3.12 µg/mL (≈ 6.28 µM) | MIC (Klebsiella pneumoniae): 3.12 µg/mL (≈ 6.28 µM) | fold change (FC) (Staphylococcus aureus [5]): <2 | fold change (FC) (Staphylococcus aureus [6]): <2 | fold change (FC) (Staphylococcus aureus [7]): <2 | fold change (FC) (Staphylococcus aureus [8]): <2 | fold change (FC) (Acinetobacter baumannii [9]): <2 | fold change (FC) (Acinetobacter baumannii [10]): <2 | fold change (FC) (Escherichia coli [11]): <2 | Activity (Cell membrane [12]): Active | Activity (Cell membrane [13]): Dde | Activity (Lipoteichoic acid [14]): 25.4% | Activity (Lipoteichoic acid [15]): 37.2% | Activity (Lipopolysaccharide (LPS)): 36.9% | viability at 24 h, 12.5 ug/ml [16]: 84.5% | viability at 24 h, 25 ug/ml [17]: 74.1% | viability at 24 h, 3.125 ug/ml [18]: 94.1% | viability at 24 h, 12.5 ug/ml [19]: 84.9% | viability at 24 h, 50 ug/ml [20]: 14.4% | CC50 at 24 h [21]: 36.8 µg/mL (≈ 73.9 µM) | CC50 at 24 h [22]: 28.6 µg/mL (≈ 57.5 µM) | Activity (Staphylococcus aureus [23]): 12.91% | Activity (Staphylococcus aureus [24]): 42.21% | Activity (Escherichia coli [25]): 8.71% | Activity (Staphylococcus aureus [26]): 34.11% | Activity (Escherichia coli [27]): 91.55% | Activity (Escherichia coli [28]): 49.85% | Activity (Escherichia coli [29]): 10.78% | Activity [30]: Non-Toxic | Activity [31]: Non-Toxic
